In ChEMBL document CHEMBL1201862, “PubChem BioAssay data set” (2004):
Blank lines part the entries; values can stand above or below the molecule they belong to. The source made the active and inactive calls.

Assays:
[1] = target: T1, Carboxy-terminal domain RNA polymerase II polypeptide A small phosphatase 1 (Homo sapiens, UniProt Q9GZU7); assay: CTDSP1 inhibitors, concentration-response, biochemical, absorbance readout, ultra-high-throughput screen actives (AID 540297); type: functional
T1 sequence (Q9GZU7 whole entry): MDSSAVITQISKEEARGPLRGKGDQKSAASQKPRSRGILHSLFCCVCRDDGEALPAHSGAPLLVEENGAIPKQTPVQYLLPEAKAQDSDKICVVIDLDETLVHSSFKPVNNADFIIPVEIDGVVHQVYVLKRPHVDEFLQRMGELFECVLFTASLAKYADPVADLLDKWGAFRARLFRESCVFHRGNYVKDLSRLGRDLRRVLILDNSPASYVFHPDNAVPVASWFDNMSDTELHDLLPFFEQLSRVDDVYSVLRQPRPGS

[2] = target: 26S proteasome non-ATPase regulatory subunit 14 (Homo sapiens, UniProt O00487); assay: inhibition of proteasome subunit RPN11 – biochemical, fluorescence polarization, uHTS hits, confirmation (AID 602368); type: functional
Sequence of 26S proteasome non-ATPase regulatory subunit 14 (O00487 whole entry): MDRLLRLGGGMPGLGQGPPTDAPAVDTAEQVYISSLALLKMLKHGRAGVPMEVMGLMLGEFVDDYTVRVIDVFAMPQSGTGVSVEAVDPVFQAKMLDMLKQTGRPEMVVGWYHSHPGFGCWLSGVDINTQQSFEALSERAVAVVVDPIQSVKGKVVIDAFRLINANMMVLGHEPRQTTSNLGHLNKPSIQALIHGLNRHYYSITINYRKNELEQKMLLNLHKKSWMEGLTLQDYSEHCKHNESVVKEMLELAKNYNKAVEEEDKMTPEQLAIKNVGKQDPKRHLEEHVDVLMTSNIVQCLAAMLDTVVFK

Prothrombin = Prothrombin (Bos taurus, UniProt P00735); assay: thrombin protease inhibitors – biochemical, fluorescence polarization, uHTS hits, dose response (AID 602369); type: functional
[3] = target: 72 kDa type IV collagenase (Homo sapiens, UniProt P08253); assay: Dose Response validation of uHTS RPN11 inhibitor hits using a MMP-2 Fluorescence assay.; type: functional
Sequence of 72 kDa type IV collagenase (P08253 whole entry): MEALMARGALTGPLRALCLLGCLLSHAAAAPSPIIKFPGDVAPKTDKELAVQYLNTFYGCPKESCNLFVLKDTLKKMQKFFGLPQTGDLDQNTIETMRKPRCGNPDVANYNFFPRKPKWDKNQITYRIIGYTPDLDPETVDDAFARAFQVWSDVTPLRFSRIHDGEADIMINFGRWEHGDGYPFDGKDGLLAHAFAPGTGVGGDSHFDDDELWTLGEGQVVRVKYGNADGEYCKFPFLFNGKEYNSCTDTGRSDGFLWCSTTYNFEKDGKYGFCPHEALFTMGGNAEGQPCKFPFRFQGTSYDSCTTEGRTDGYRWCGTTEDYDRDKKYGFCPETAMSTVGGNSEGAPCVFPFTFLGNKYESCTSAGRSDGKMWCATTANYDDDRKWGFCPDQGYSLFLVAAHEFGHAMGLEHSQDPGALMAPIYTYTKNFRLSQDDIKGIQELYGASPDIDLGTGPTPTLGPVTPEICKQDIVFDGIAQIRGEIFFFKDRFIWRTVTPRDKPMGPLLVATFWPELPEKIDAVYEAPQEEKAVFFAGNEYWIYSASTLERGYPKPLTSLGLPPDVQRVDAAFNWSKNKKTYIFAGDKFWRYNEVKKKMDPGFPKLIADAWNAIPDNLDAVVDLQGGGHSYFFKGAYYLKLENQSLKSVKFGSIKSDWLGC

[4] = target: T2, High affinity choline transporter 1 (Homo sapiens, UniProt Q9GZV3); assay: human choline transporter blockers, potency – cell-based, 5-point CRC, membrane potential dye, dose response (AID 504840); type: functional
T2 sequence (Q9GZV3 whole entry): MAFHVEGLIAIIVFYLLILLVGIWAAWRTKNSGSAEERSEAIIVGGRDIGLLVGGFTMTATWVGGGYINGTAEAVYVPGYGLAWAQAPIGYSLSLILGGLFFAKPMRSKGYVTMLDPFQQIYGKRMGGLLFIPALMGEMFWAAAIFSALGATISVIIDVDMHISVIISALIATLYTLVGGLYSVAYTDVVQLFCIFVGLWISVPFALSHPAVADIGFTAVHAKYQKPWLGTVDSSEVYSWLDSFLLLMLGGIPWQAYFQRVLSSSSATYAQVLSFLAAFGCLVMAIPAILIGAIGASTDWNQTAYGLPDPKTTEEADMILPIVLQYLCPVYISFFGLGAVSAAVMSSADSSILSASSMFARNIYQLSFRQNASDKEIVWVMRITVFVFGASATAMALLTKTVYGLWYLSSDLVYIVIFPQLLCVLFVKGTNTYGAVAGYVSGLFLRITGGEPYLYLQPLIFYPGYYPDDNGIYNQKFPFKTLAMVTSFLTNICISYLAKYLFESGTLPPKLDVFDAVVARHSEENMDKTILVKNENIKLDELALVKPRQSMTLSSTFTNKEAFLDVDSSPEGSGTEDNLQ

[5] = system: Streptococcus sp. 'group A'; assay: Streptococcus pyogenes SK(-)GAS viability under kanamycin – luminescence, BacTiterGlo, confirmation, counter-screen for streptokinase expression inhibitor project, dose response (AID 1900); type: functional, organism-based
Streptococcus = assay: GAS UMAA2166 growth inhibition – luminescence, BacTiterGlo, counter-screen for streptokinase expression inhibitor project, dose response (AID 1915); type: functional, organism-based;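 note: potency for reduction of bacterial viability or growth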
[6] = HEK-293T viability loss after treatment – luminescence, T-cell screen hits, cytotoxicity control for TCR NF-kB inhibitor project, dose response (AID 489026); type: functional, cell-based;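 note: cells exposed to compound about 14 hours before the viability readout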
A-375 = assay: MITF: Counter assay: A375 proliferation Measured in Cell-Based System Using Plate Reader - 2084-03_Inhibitor_Dose_DryPowder_Activity. [Related pubchem assays (depositor defined):AID488944]; type: functional; conditions: Homo sapiens
INS1 = assay: INS-1E survival protection against cytokine death – cell-based, luminescence, retest, dose response (AID 449756); type: functional; conditions: Rattus norvegicus;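 note: cell death triggered by IL-1 beta plus TNF-alpha plus IFN-gamma mixture; protective hits raise ATP signal compared with cytokine alone wells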
[7] = target: T3, Microphthalmia-associated transcription factor (Homo sapiens, UniProt O75030); assay: reducers of TRPM1 reporter luminescence, concentration series – cell-based, SK-MEL-5, cherry-picked, set 3, MITF inhibitor project, dose response (AID 493073); type: functional;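 note: SK-MEL-5 melanoma cells with luciferase driven by the MITF target TRPM1 promoter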
T3 sequence (O75030 whole entry): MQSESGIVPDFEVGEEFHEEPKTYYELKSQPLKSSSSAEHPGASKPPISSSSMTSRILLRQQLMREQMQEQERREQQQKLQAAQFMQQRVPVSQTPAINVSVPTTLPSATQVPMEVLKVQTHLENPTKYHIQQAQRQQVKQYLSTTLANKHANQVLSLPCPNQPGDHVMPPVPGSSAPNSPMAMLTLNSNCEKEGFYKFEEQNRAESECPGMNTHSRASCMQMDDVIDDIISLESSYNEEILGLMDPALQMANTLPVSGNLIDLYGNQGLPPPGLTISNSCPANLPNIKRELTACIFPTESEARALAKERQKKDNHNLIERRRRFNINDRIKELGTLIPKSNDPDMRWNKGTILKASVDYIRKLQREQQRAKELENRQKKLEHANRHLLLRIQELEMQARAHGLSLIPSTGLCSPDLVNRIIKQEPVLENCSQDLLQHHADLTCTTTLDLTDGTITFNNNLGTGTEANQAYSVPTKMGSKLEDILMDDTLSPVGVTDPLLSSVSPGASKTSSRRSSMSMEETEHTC

IC50 [1]: 14.3 µM (active)
SMILES: COc1cc(OC)c2ccc(=O)oc2c1C(CC(=O)N1CCCC(C)C1)c1ccc2c(c1)OCO2 (centres undefined)

IC50 [1]: 8.39 µM (active)
SMILES: O=C(CSc1nc2c(sc3ccccc32)c(=O)n1CCO)NCc1ccco1

IC50 [2]: 18.2 µM (active) | IC50 [1]: 4.45 µM (active) | IC50 (Prothrombin): 77.5 µM (active) | IC50 [3]: > 100 µM (inactive)
SMILES: O=C(N/N=C/c1ccccc1F)c1cc2c(ccc3ccccc32)o1

IC50 [4]: 13.2 µM (active)
SMILES: O=C(O/N=C(/c1ccccc1)c1ccncc1)c1ccccc1[N+](=O)[O-]

More lines, now with the values behind:

SMILES: Oc1c(Br)cc(Br)cc1/C=N/c1nc2c(s1)CCCC2
IC50 [4]: 13.2 µM (active) | EC50 [5]: 7.39 µM (active) | EC50 (Streptococcus): 7.68 µM (active)

SMILES: COc1ccc(C(=O)/C(C#N)=N/Nc2ccc([N+](=O)[O-])cc2)cc1
IC50 [6]: > 80 µM (inactive) | AC50 (A-375): 28.8 µM (active) | AC50 (INS1): 1.9 µM (active) | AC50 [7]: 8.26 µM (active)
